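Exposure lasted 48 hours, with cells grown in 96-well plates and compounds tested at five concentrations. GI50 = concentration required for 50% inhibition of growth. The concentration for full growth arrest is given as TGI.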
Assays:
Experiment in all cases: NCI anticancer screen, dose series, 48 h
[1] = system: 786-0 renal
[2] = system: HOP-92 NSCLC
[3] = system: SNB-75 CNS
[4] = system: COLO 205 colon
[5] = system: MDA-MB-231 breast
[6] = system: LOX IMVI melanoma
[7] = system: HCT-116 colon
[8] = system: NCI/ADR-RES ovarian
[9] = system: MDA-MB-435
[10] = system: OVCAR-8 ovarian
[11] = system: T-47D breast
[12] = system: HL-60(TB) leukemia
[13] = system: CAKI-1 renal
[14] = system: A549 NSCLC
[15] = system: MCF7 breast
[16] = system: TK-10 renal
[17] = system: DU-145 prostate
[18] = system: BT-549 breast
[19] = system: CCRF-CEM leukemia
[20] = system: NCI-H460 lung
[21] = system: PC-3 prostate
[22] = system: M14 melanoma
[23] = system: ACHN renal
[24] = system: RXF 393 renal
[25] = system: K-562 leukemia
[26] = system: HOP-62 NSCLC
[27] = system: NCI-H522 lung
[28] = system: OVCAR-5 ovarian
[29] = system: UACC-257 melanoma
[30] = system: SR leukemia
[31] = system: SN12C renal
[32] = system: OVCAR-4 ovarian
[33] = system: IGROV1 ovarian
[34] = system: SNB-19 CNS
[35] = system: SK-OV-3 ovarian
[36] = system: SW-620 colon
[37] = system: HCT-15 colon
[38] = system: NCI-H23 lung
[39] = system: HT29 colon
[40] = system: KM12 colon
[41] = system: NCI-H226 lung
[42] = system: A498 renal
[43] = system: SF-268 CNS
[44] = system: SK-MEL-28 melanoma
[45] = system: OVCAR-3 ovarian
[46] = system: U251 CNS
[47] = system: SK-MEL-2 melanoma
[48] = system: MOLT-4 leukemia
[49] = system: EKVX NSCLC
[50] = system: UO-31 renal
[51] = system: SF-295 CNS
[52] = system: HCC-2998 colon
[53] = system: SK-MEL-5 melanoma
[54] = system: SF-539 CNS
[55] = system: HS 578T breast
[56] = system: RPMI-8226 leukemia
[57] = system: UACC-62 melanoma

Cc1sc2ncn(Cc3ccc(Cl)c(Cl)c3)c(=O)c2c1C
GI50 [1]: 34.2 µM | TGI [1]: > 100 µM | GI50 [2]: 18.4 µM | TGI [2]: 73.7 µM | GI50 [3]: 29.3 µM | TGI [3]: > 100 µM | GI50 [4]: 63.2 µM | TGI [4]: > 100 µM | GI50 [5]: 24.7 µM | TGI [5]: 77.9 µM | GI50 [6]: 25.8 µM | TGI [6]: > 100 µM | GI50 [7]: 17.4 µM | TGI [7]: 44.8 µM | GI50 [8]: 27.5 µM | TGI [8]: > 100 µM | GI50 [9]: 8.72 µM | TGI [9]: > 100 µM | GI50 [10]: 50.8 µM | TGI [10]: > 100 µM | GI50 [11]: 24.8 µM | TGI [11]: > 100 µM | GI50 [12]: > 100 µM | TGI [12]: > 100 µM | GI50 [13]: 3.47 µM | TGI [13]: 32.9 µM | GI50 [14]: 31.3 µM | TGI [14]: > 100 µM | GI50 [15]: 25.6 µM | TGI [15]: > 100 µM | GI50 [16]: 1.81 µM | TGI [16]: 7.91 µM | GI50 [17]: 44.3 µM | TGI [17]: > 100 µM | GI50 [18]: 58.9 µM | TGI [18]: > 100 µM | GI50 [19]: 27.7 µM | TGI [19]: > 100 µM | GI50 [20]: 51.5 µM | TGI [20]: > 100 µM | GI50 [21]: 20.1 µM | TGI [21]: > 100 µM | GI50 [22]: 24.4 µM | TGI [22]: 64 µM | GI50 [23]: 12.4 µM | TGI [23]: > 100 µM | GI50 [24]: > 100 µM | TGI [24]: > 100 µM | GI50 [25]: 5.4 µM | TGI [25]: > 100 µM | GI50 [26]: 14 µM | TGI [26]: 36.7 µM | GI50 [27]: 13.1 µM | TGI [27]: 73.9 µM | GI50 [28]: 21.6 µM | TGI [28]: 79.7 µM | GI50 [29]: 78.8 µM | TGI [29]: > 100 µM | GI50 [30]: 29.8 µM | TGI [30]: > 100 µM | GI50 [31]: 20.5 µM | TGI [31]: > 100 µM | GI50 [32]: 28.2 µM | TGI [32]: 68.9 µM | GI50 [33]: 9.28 µM | TGI [33]: 42.8 µM | GI50 [34]: 38 µM | TGI [34]: > 100 µM | GI50 [35]: 46.8 µM | TGI [35]: > 100 µM | GI50 [36]: 59.8 µM | TGI [36]: > 100 µM | GI50 [37]: 19.4 µM | TGI [37]: > 100 µM | GI50 [38]: 32.5 µM | TGI [38]: > 100 µM | GI50 [39]: 77.7 µM | TGI [39]: > 100 µM | GI50 [40]: 2.44 µM | TGI [40]: 11.7 µM | GI50 [41]: > 100 µM | TGI [41]: > 100 µM | GI50 [42]: 35.7 µM | TGI [42]: > 100 µM | GI50 [43]: 25.5 µM | TGI [43]: > 100 µM | GI50 [44]: 77.9 µM | TGI [44]: > 100 µM | GI50 [45]: 8.04 µM | TGI [45]: 38.3 µM | GI50 [46]: 27.6 µM | TGI [46]: > 100 µM | GI50 [47]: 27.7 µM | TGI [47]: > 100 µM | GI50 [48]: 79.3 µM | TGI [48]: > 100 µM | GI50 [49]: 22.2 µM | TGI [49]: > 100 µM | GI50 [50]: 31.4 µM | TGI [50]: > 100 µM | GI50 [51]: 3.85 µM | TGI [51]: 22.7 µM | GI50 [52]: 7.39 µM | TGI [52]: 30.1 µM | GI50 [53]: 54.4 µM | TGI [53]: > 100 µM | GI50 [54]: 37 µM | TGI [54]: > 100 µM | GI50 [55]: 35.2 µM | TGI [55]: > 100 µM | GI50 [56]: 12.2 µM | TGI [56]: > 100 µM | GI50 [57]: 13.2 µM | TGI [57]: > 100 µM

Source: PubChem BioAssay (NCI)
